Source: US20220402873A1, “NOVEL P62 LIGAND COMPOUND, AND COMPOSITION CONTAINING SAME FOR PREVENTING, AMELIORATING, OR TREATING PROTEINOPATHIES” (AUTOTAC INC., priority 2019, published 2022)

Columns and labels:
Assay type in all cases: cell-based
p62 protein [1] = molecular target: T1, p62 protein (Homo sapiens, UniProt Q13501); test: Oligomerization activity of p62 protein by immunoblotting; design: endogenous in cells; conditions: HEK293 cell line lysate treated with test compounds for 2 hours at room temperature
Excerpt: In order to evaluate the oligomerization activity efficacy of p62 protein of the compounds (Examples 1-20), HEK293 cell line, which is human embryonic kidney-derived cell, was collected. As representative compounds of the present compounds, the compounds of Examples 1-20 (Example 1 (ATB10048), Example 2 (ATB10047), Example 3 (ATB10049), Example 4 (ATB10051), Example 5 (ATB10050), Example 6 (ATB10056), Example 7 (ATB10052), Example 8 (ATB10057), Example 9 (ATB10060), Example 10 (ATB10072), Example 11 (ATB10075), Example 12 (ATB10078), Example 13 (ATB10079), Example 14 (ATB10080), Example 15 (ATB10081), Example 16 (ATB10087), Example 17 (ATB10096), Example 18 (ATB10097), Example 19 (ATB10099) and Example 20 (ATB10100)) were selected, and in order to measure the activation and oligomerization of the p62 protein in cells according to the treatment with these selected representative compounds, each cell was dispensed into a 100 phi dish. The cells were collected after additional culture for 24 hours so that the cells were completely attached to the surface of the plate, and 100 ul of lysis buffer (20 mM Tris (pH 7.4), 150 mM NaCl, 1% Triton X-100, 2 mM NaF, 2 mM EDTA, 2 mM beta-glycerophosphate, 5 mM sodium orthovanadate, 1 mM PMSF, leupeptin, aproteinin) was injected to each sample, and the cells were lysed. Based on the measured total protein concentration, each sample was treated with the test compounds for 2 hours at room temperature, and then a sample buffer was added and reacted at 95° C. for 10 minutes. 25 ul was taken from the samples after the reaction was completed and dispensed into each well of an acrylamide gel, and immunoblotting was performed.

p62 protein [2] = molecular target: T1, p62 protein; test: Activity of p62 protein and delivery to autophagosome by immunofluorescence staining (p62, LC3-GFP) and confocal microscopy; design: endogenous in cells; host or cells: HeLa; conditions: Hela-LC3-GFP cell line, 5 uM, 24 hours
Experimental: Immunofluorescence staining was performed using p62 and FK2 marker to determine the level of activity of p62 protein of the compounds (Examples 1-20). In order to determine the level of p62 activity and autophagy activity by the novel p62 ligand and its isomers in cultured cells, Hela-LC3-GFP cell line derived from cervical cancer patients was treated with the novel p62 ligand compounds (Example 2 (ATB10047), Example 3 (ATB10049), Example 4 (ATB10051), Example 6 (ATB10056), Example 9 (ATB10060), Example 12 (ATB10078), Example 16 (ATB10087) and Example (ATB10097)) and cultured. Then, the level of puncta expression and location of LC3-GFP, which is an essential autophagosome marker for macroautophagy, and the puncta local co-existence of p62 were observed.
For immunofluorescence staining, a cover glass was placed on a 24-well plate, cells were dispensed and cultured for 24 hours, and then treated with 5 uM of the novel p62 ligand according to the present invention. The cells were further cultured for an additional 24 hours for the action of the compound, the medium was removed, and the cells were fixed using formaldehyde at room temperature. In order to prevent non-specific staining, the cells were reacted with a blocking solution at room temperature for 1 hour, and then the LC3 antibody diluted at a certain ratio was treated with the blocking solution and then reacted at room temperature for 1 hour. After the antibody-treated cells were washed 3 times with PBS, the goat-derived secondary antibody was diluted at a certain ratio using the blocking solution, and then reacted at room temperature for 30 minutes. The cells were washed again with PBS three times and subjected to DAPI staining for intracellular nuclear staining, and then the level of expression of p62 or LC3, intracellular puncta formation, and intracellular coexistence level were observed by a confocal microscope.

p62 protein [3] = molecular target: T1, p62 protein; test: Activity of p62 protein and delivery of ubiquitinated substrate proteins to autophagy by immunofluorescence staining (p62, FK2) and confocal microscopy; design: endogenous in cells; host or cells: HeLa; conditions: Hela cell line, 1 uM, 6 hours
Experimental: Immunofluorescence staining was performed using p62 and FK2 as markers to determine the level of the activity of p62 protein of the compounds (Examples 1-20). In order to determine the level of p62 activity and autophagy activity by the novel p62 ligand and its isomers in the cultured cells, the Hela cell line derived from cervical cancer patients was treated with a novel p62 ligand compound (Example 1 (ATB10048), Example 2 (ATB10047), Example 3 (ATB10049), Example 5 (ATB10050), Example 4 (ATB10051), Example 7 (ATB10052), Example 6 (ATB10056), Example 8 (ATB10057), Example 9 (ATB10060), Example 10 (ATB10072), Example 11 (ATB10075), Example 12 (ATB10078), […], Example 14 (ATB10080), Example 15 (ATB10081), Example 16 (ATB10087)), Example 17 (ATB0096), Example 18 (ATB10097), Example 19 (ATB10099) and Example 20 (ATB10100)) and cultured, and then the level of puncta expression and location of FK2, which was a marker of the protein to be delivered to and degraded in the autophagy through the mediation of the intracellular ubiquitinated p62, and the puncta local co-existence with p62 were observed.
For immunofluorescence staining, a cover glass was placed on a 24-well plate, cells were dispensed and cultured for 24 hours, and then 1 uM of the novel p62 ligand according to the present invention was treated. After culturing for an additional 6 hours for the action of the compound, the medium was removed, and the cells were fixed using formaldehyde at room temperature. In order to prevent non-specific staining, the cells were reacted with a blocking solution at room temperature for 1 hour, and then the LC3 antibody diluted at a certain ratio was treated with a blocking solution and then reacted at room temperature for 1 hour. After the antibody-treated cells were washed 3 times with PBS, the goat-derived secondary antibody was diluted at a certain ratio using the blocking solution, and then reacted at room temperature for 30 minutes. After further washing with PBS three times, and DAPI staining was performed for intracellular nuclear staining. Then, the level of expression of p62 or FK2, the level of intracellular puncta formation, and the level of coexistence in the cells were observed by a confocal microscope.

T1 sequence (Q13501 whole entry): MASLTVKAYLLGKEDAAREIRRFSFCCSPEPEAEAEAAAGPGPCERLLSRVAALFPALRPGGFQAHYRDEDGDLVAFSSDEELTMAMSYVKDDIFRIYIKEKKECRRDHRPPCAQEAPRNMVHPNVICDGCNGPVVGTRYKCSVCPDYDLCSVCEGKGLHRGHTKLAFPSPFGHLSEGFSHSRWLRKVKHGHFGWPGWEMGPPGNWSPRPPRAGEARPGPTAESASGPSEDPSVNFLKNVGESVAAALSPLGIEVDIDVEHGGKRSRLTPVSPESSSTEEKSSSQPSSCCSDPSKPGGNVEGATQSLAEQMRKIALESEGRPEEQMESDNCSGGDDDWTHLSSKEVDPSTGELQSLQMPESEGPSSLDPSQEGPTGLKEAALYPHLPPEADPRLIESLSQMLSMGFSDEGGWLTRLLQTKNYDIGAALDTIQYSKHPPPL

SMILES | p62 protein oligomerization activity (immunoblot, FIGS. 2a to 2d) (p62 protein [1]) | targeting of activated, oligomerized p62 protein to the autophagosome (FIG. 4) (p62 protein [2]) | delivery of ubiquitinated proteins marked with FK2 to autophagosome mediated by p62 (FIGS. 3a to 3d) (p62 protein [3])
OCCNCc1ncc(OCc2ccccc2)cn1 [Example 9, 2-(((5-(benzyloxy)pyrimidin-2-yl)methyl)amino)ethan-1-ol] | increasing the p62 protein oligomerization activity | show the efficacy of targeting them to the autophagosome | show the efficacy of delivering the proteins to be delivered to and degraded by autophagosome
OCCNCc1ccc(CCc2ccccc2)o1 [Example 16, 2-(((5-phenethylfuran-2-yl)methyl)amino)ethan-1-ol] | increasing the p62 protein oligomerization activity | show the efficacy of targeting them to the autophagosome | show the efficacy of delivering the proteins to be delivered to and degraded by autophagosome
COC(=O)CCNC[C@@H](O)COc1cc(OCc2ccccc2)ccn1 [Example 12, methyl (R)-3-((3-((4-(benzyloxy)pyridin-2-yl)oxy)-2-hydroxypropyl)amino)propanoate] | increasing the p62 protein oligomerization activity | show the efficacy of targeting them to the autophagosome | show the efficacy of delivering the proteins to be delivered to and degraded by autophagosome
O=C(CO)NCc1cc(OCc2ccccc2)ccn1 [Example 4, N-((4-(benzyloxy)pyridin-2-yl)methyl)-2-hydroxyacetamide] | increasing the p62 protein oligomerization activity | show the efficacy of targeting them to the autophagosome | show the efficacy of delivering the proteins to be delivered to and degraded by autophagosome
O=C(CO)NCc1ccc(OCc2ccccc2)cn1 [Example 3, N-((5-(benzyloxy)pyridin-2-yl)methyl)-2-hydroxyacetamide] | increasing the p62 protein oligomerization activity | show the efficacy of targeting them to the autophagosome | show the efficacy of delivering the proteins to be delivered to and degraded by autophagosome
OCCNCc1ccc(OCc2ccccc2)o1 [Example 18, 2-(((5-(benzyloxy)-furan-2-yl)methyl)amino)ethan-1-ol] | increasing the p62 protein oligomerization activity | show the efficacy of targeting them to the autophagosome | show the efficacy of delivering the proteins to be delivered to and degraded by autophagosome
